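Where inhibition never reached the appropriate level, the endpoint shown equals the highest concentration tested. Otherwise, values were interpolated linearly from a five-concentration, 48-hour dose response in 96-well plates. Abbreviation: GI50, concentration required for 50% inhibition of growth.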 The source made the active and inactive calls. No stated cut-off is given here; in the data, active = GI50 up to about 1.1 µM and inactive = higher.
Tests used:
Test in all cases: NCI tumour cell line growth inhibition, 48 h
786-0 = test system: 786-0
A549 = test system: A549
CAKI-1 = test system: CAKI-1
COLO 205 = test system: COLO 205
DU-145 = test system: DU-145
HCT-15 = test system: HCT-15
HOP-62 = test system: HOP-62
HT-29 = test system: HT-29
K562 = test system: K562
LOX IMVI = test system: LOX IMVI
MDA-MB-435 = test system: MDA-MB-435
MDA-N = test system: MDA-N
NCI-H23 = test system: NCI-H23
OVCAR-3 = test system: OVCAR-3
OVCAR-8 = test system: OVCAR-8
PC-3 = test system: PC-3
RXF 393 = test system: RXF 393
A498 = test system: A498
SF-268 = test system: SF-268
SK-MEL-28 = test system: SK-MEL-28

| SMILES | GI50 (786-0) | GI50 (A549) | GI50 (CAKI-1) | GI50 (COLO 205) | GI50 (DU-145) | GI50 (HCT-15) | GI50 (HOP-62) | GI50 (HT-29) | GI50 (K562) | GI50 (LOX IMVI) | GI50 (MDA-MB-435) | GI50 (MDA-N) | GI50 (NCI-H23) | GI50 (OVCAR-3) | GI50 (OVCAR-8) | GI50 (PC-3) | GI50 (RXF 393) | GI50 (A498) | GI50 (SF-268) | GI50 (SK-MEL-28) |
| --- | --- | --- | --- | --- | --- | --- | --- | --- | --- | --- | --- | --- | --- | --- | --- | --- | --- | --- | --- | --- |
| NC(=S)NC/C=C/Cl | > 100 µM (inactive) | > 100 µM (inactive) | > 100 µM (inactive) | > 100 µM (inactive) | > 100 µM (inactive) | > 100 µM | > 100 µM (inactive) | > 100 µM (inactive) | > 100 µM (inactive) | > 100 µM (inactive) | > 100 µM (inactive) | > 100 µM (inactive) | > 100 µM (inactive) | > 100 µM (inactive) | > 100 µM (inactive) | > 100 µM (inactive) | > 100 µM (inactive) | – | – | – |
| O=[N+]([O-])C(=C(N1CCOCC1)N1CCOCC1)/C(Cl)=C(\Cl)Br | 25.4 µM (inactive) | > 100 µM (inactive) | – | 14.8 µM (inactive) | 46.6 µM (inactive) | 15.2 µM | > 100 µM (inactive) | 26.8 µM (inactive) | 15.2 µM (inactive) | 19.3 µM (inactive) | – | 26.4 µM (inactive) | 17.3 µM (inactive) | 14.5 µM (inactive) | 24.1 µM (inactive) | 35 µM (inactive) | – | 37.4 µM (inactive) | 23.6 µM (inactive) | 17.4 µM (inactive) |
| NC1Cc2ccccc2OC1=O (centres undefined) | > 100 µM (inactive) | > 100 µM (inactive) | > 100 µM (inactive) | > 100 µM (inactive) | > 100 µM (inactive) | > 100 µM | > 100 µM (inactive) | > 100 µM (inactive) | > 100 µM (inactive) | – | > 100 µM (inactive) | > 10 µM (inactive) | > 100 µM (inactive) | > 100 µM (inactive) | > 100 µM (inactive) | > 100 µM (inactive) | > 100 µM (inactive) | – | > 100 µM (inactive) | > 100 µM (inactive) |
| NC1CC(Cl)c2c(Cl)sc(Cl)c21 (centres undefined) | > 100 µM (inactive) | > 100 µM (inactive) | > 100 µM (inactive) | > 100 µM (inactive) | > 100 µM (inactive) | > 100 µM | > 100 µM (inactive) | > 100 µM (inactive) | > 100 µM (inactive) | > 100 µM (inactive) | > 100 µM (inactive) | > 100 µM (inactive) | > 100 µM (inactive) | > 100 µM (inactive) | > 100 µM (inactive) | – | 14.2 µM (inactive) | > 100 µM (inactive) | > 100 µM (inactive) | > 100 µM (inactive) |
| Cc1nn(C(=O)Cc2ccccc2)c2c1C(c1ccc([N+](=O)[O-])cc1)SC(=N)N2 (centres undefined) | > 100 µM (inactive) | > 100 µM (inactive) | > 100 µM (inactive) | > 100 µM (inactive) | > 100 µM (inactive) | > 100 µM | > 100 µM (inactive) | > 100 µM (inactive) | > 100 µM (inactive) | > 100 µM (inactive) | > 100 µM (inactive) | > 100 µM (inactive) | > 100 µM (inactive) | – | > 100 µM (inactive) | > 100 µM (inactive) | – | > 100 µM (inactive) | > 100 µM (inactive) | > 100 µM (inactive) |
| c1ccc(CN2CCC3(CC2)SSC2(CCN(Cc4ccccc4)CC2)S3)cc1 | > 100 µM (inactive) | 27.7 µM (inactive) | 26.9 µM (inactive) | 17 µM (inactive) | > 100 µM (inactive) | 38.8 µM | > 100 µM (inactive) | 17.6 µM (inactive) | 71.6 µM (inactive) | 48.8 µM (inactive) | 31.3 µM (inactive) | 44.7 µM (inactive) | 30.1 µM (inactive) | 76.4 µM (inactive) | > 100 µM (inactive) | > 100 µM (inactive) | – | – | – | 44 µM (inactive) |
| COP(=O)(OC)C12CCOCCN1c1ccccc1C2=O (centres undefined) | > 100 µM (inactive) | > 100 µM (inactive) | > 100 µM (inactive) | > 100 µM (inactive) | > 100 µM (inactive) | > 100 µM | > 100 µM (inactive) | > 100 µM (inactive) | – | – | > 100 µM (inactive) | > 100 µM (inactive) | > 100 µM (inactive) | > 100 µM (inactive) | > 100 µM (inactive) | > 100 µM (inactive) | – | > 100 µM (inactive) | > 100 µM (inactive) | > 100 µM (inactive) |
| COc1c(F)c(F)c(C(=O)/C=C2\Nc3ccccc3NC2=O)c(F)c1F | 2.32 µM (inactive) | 9.16 µM (inactive) | > 10 µM (inactive) | > 10 µM (inactive) | > 10 µM (inactive) | > 10 µM | 4.41 µM (inactive) | 6.98 µM (inactive) | > 10 µM (inactive) | 2.89 µM (inactive) | > 10 µM (inactive) | > 10 µM (inactive) | > 10 µM (inactive) | – | 3.79 µM (inactive) | 7.57 µM (inactive) | 9.51 µM (inactive) | – | 9.1 µM (inactive) | 6.81 µM (inactive) |
| O=C(OCc1ccccc1)C1(N2CN(C3(C(=O)OCc4ccccc4)CCCC3)CN(C3(C(=O)OCc4ccccc4)CCCC3)C2)CCCC1 | > 10 µM (inactive) | > 10 µM (inactive) | > 10 µM (inactive) | > 10 µM (inactive) | > 10 µM (inactive) | > 10 µM | > 10 µM (inactive) | > 10 µM (inactive) | > 10 µM (inactive) | > 10 µM (inactive) | > 10 µM (inactive) | > 10 µM (inactive) | > 10 µM (inactive) | > 10 µM (inactive) | > 10 µM (inactive) | > 10 µM (inactive) | > 10 µM (inactive) | – | > 10 µM (inactive) | > 10 µM (inactive) |
| Clc1cc(Cl)ncn1 | > 100 µM (inactive) | > 100 µM (inactive) | > 100 µM (inactive) | > 100 µM (inactive) | > 100 µM (inactive) | > 100 µM | > 100 µM (inactive) | > 100 µM (inactive) | > 100 µM (inactive) | > 100 µM (inactive) | > 100 µM (inactive) | > 100 µM (inactive) | > 100 µM (inactive) | > 100 µM (inactive) | > 100 µM (inactive) | > 100 µM (inactive) | > 100 µM (inactive) | – | > 100 µM (inactive) | > 100 µM (inactive) |
| NS(=O)(=O)c1nnc(NS(=O)(=O)c2cccc3cccnc23)s1 | > 100 µM (inactive) | > 100 µM (inactive) | > 100 µM (inactive) | > 100 µM (inactive) | > 100 µM (inactive) | > 100 µM | > 100 µM (inactive) | – | > 100 µM (inactive) | > 100 µM (inactive) | > 100 µM (inactive) | > 100 µM (inactive) | > 100 µM (inactive) | > 100 µM (inactive) | > 100 µM (inactive) | – | > 100 µM (inactive) | > 100 µM (inactive) | > 100 µM (inactive) | > 100 µM (inactive) |
| CN(C)CCNc1ccc([N+](=O)[O-])c2sc3ccccc3c(=O)c12 | 3.38 µM (inactive) | 3.83 µM (inactive) | – | 2.86 µM (inactive) | 5.07 µM (inactive) | 3.67 µM | 2.81 µM (inactive) | 2.57 µM (inactive) | 4.43 µM (inactive) | – | 5.19 µM (inactive) | 4.92 µM (inactive) | 4.16 µM (inactive) | 3.68 µM (inactive) | 3.63 µM (inactive) | 4.11 µM (inactive) | 14.4 µM (inactive) | – | 4.21 µM (inactive) | 7.08 µM (inactive) |

Reference: ChEMBL document CHEMBL1201862, “PubChem BioAssay data set” (2004)
